Earlier results as cited in US7621907B2, “Implantable drug delivery system” (Alcon, Inc., priority 2002, dated 2009).
Structures can show the parent of a compound that is named as a salt.

Settings: descriptive statement, no test described

water solubility | Compound
relatively low | NC(=O)Cc1cccc(C(=O)c2ccccc2)c1N [nepafenac]
relatively high | CC(C)NCC(O)COc1ccc(CCOCC2CC2)cc1 (centres unmarked) [betaxolol HCl]
